Results: ChEMBL document CHEMBL1201862, “PubChem BioAssay data set” (2004)
Activity calls are given as the source filed them.

Experiments:
Protein skinhead-1 = target: T1, Protein skinhead-1 (Caenorhabditis elegans, UniProt P34707); format: functional
T1 sequence (P34707 whole entry): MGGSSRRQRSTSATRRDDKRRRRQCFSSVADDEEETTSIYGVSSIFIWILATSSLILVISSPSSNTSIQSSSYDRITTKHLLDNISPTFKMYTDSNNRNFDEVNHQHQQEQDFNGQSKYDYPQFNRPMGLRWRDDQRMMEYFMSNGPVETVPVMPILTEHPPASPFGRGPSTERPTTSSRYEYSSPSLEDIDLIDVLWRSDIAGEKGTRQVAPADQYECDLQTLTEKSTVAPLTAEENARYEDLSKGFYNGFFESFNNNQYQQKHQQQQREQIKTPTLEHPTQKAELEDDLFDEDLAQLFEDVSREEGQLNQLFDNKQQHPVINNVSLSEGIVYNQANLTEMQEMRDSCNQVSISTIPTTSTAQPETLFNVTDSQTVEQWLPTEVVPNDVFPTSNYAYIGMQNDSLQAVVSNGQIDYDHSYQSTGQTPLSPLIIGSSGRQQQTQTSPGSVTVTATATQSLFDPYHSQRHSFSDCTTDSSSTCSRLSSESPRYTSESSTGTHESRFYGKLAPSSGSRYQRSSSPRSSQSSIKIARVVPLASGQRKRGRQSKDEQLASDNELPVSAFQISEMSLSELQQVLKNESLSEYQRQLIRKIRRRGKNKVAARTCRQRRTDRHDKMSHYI

Streptokinase A = target: T2, Streptokinase A (Streptococcus pyogenes serotype M1, UniProt P10520); assay: viability-normalized secreted streptokinase activity reduction – plasminogen activation absorbance, OD405, dose response (AID 1914); format: functional, Streptococcus pyogenes M1 GAS;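 further: secreted streptokinase activity via plasminogen activation per viability signal from cell pellet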
T2 sequence (P10520 whole entry): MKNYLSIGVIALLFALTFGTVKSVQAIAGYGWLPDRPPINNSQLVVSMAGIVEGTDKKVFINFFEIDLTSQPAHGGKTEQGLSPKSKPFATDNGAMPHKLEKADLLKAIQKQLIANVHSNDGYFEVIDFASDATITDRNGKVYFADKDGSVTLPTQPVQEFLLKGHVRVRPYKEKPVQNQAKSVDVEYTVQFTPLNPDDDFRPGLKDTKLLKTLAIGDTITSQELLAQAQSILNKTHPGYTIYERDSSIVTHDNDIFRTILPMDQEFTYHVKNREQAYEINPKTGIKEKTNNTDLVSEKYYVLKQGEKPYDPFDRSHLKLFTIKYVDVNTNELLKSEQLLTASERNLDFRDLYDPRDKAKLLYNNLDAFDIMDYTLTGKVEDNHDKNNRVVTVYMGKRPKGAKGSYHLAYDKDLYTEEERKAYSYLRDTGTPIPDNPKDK

[1] = system: Streptococcus sp. 'group A'; assay: Streptococcus pyogenes SK(-)GAS viability under kanamycin – luminescence, BacTiterGlo, confirmation, counter-screen for streptokinase expression inhibitor project, dose response (AID 1900); format: functional, organism-based
cells = format: functional
Streptococcus = assay: GAS UMAA2166 growth inhibition – luminescence, BacTiterGlo, counter-screen for streptokinase expression inhibitor project, dose response (AID 1915); format: functional, organism-based;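 further: potency for reduction of bacterial viability or growth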
[2] = viability of HCT116 lacking mutant beta-catenin – cell-based, human colon tumor, dose response (AID 1045); format: functional;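 further: HCT116 colon tumor cells with beta catenin knocked out; cells exposed to compound for 60 hours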
[3] = viability of PTEN-deleted HCT116 cells – cell-based, HCT116 PTEN knockout, dose response (AID 1047); format: functional;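 further: HCT116 colon tumor cells with PTEN knocked out; cells exposed to compound for 60 hours before readout; potency for loss of cell viability measured by luminescence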
[4] = target: T3, Rac GTPase-activating protein 1 (Homo sapiens, UniProt Q9H0H5); assay: blockers of MgcRacGAP-driven Rac1 GTP hydrolysis – biochemical, ADP Hunter fluorescence, primary and confirmatory, confirmation (AID 624330); format: functional
T3 sequence (Q9H0H5 whole entry): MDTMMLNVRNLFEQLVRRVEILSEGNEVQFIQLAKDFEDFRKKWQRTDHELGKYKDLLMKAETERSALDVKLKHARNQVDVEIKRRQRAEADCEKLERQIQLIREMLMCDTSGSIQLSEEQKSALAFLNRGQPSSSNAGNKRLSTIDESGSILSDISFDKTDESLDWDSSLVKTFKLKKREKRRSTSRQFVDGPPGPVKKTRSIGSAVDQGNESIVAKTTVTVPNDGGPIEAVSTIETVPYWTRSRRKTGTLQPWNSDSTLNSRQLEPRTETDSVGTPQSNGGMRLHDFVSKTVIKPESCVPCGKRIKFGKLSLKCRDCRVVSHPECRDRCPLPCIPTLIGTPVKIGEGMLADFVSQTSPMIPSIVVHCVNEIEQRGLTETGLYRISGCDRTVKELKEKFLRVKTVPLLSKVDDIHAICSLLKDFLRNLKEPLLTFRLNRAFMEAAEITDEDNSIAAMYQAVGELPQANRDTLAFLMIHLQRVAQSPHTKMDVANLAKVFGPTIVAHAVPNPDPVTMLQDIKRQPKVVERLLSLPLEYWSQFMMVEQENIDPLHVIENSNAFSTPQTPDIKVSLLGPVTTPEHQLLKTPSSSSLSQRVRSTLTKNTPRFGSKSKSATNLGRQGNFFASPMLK

Cytochrome P450 2D6 = Cytochrome P450 2D6 (Homo sapiens, UniProt P10635);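 further: CYP2D6 member of a cytochrome P450 panel assay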
Chain of Cytochrome P450 2D6 (P10635 whole entry): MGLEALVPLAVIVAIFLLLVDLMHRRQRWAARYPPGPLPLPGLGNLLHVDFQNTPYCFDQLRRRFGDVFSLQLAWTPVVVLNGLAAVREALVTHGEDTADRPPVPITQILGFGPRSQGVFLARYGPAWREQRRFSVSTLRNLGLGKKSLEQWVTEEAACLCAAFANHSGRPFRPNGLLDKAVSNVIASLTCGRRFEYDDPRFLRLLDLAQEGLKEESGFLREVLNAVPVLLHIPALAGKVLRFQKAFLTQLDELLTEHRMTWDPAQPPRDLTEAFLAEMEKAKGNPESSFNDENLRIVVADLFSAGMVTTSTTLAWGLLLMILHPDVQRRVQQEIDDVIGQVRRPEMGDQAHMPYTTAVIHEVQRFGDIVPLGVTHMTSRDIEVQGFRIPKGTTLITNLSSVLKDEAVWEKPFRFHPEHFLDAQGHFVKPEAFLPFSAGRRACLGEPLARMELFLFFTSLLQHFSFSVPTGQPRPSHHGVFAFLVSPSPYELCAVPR

[5] = Luminescence Cell-Based Dose Retest to Confirm Inhibitors of Cancer Stem Cells. [Related pubchem assays (depositor defined):AID2717, AID2721]; format: functional; conditions: Homo sapiens
[6] = target: T4, Zinc finger protein mex-5 (Caenorhabditis elegans, UniProt Q9XUB2); assay: potency of MEX-5 RNA-binding blockers – biochemical, C. elegans, fluorescence polarization, dose response (AID 1960)
T4 sequence (Q9XUB2 whole entry): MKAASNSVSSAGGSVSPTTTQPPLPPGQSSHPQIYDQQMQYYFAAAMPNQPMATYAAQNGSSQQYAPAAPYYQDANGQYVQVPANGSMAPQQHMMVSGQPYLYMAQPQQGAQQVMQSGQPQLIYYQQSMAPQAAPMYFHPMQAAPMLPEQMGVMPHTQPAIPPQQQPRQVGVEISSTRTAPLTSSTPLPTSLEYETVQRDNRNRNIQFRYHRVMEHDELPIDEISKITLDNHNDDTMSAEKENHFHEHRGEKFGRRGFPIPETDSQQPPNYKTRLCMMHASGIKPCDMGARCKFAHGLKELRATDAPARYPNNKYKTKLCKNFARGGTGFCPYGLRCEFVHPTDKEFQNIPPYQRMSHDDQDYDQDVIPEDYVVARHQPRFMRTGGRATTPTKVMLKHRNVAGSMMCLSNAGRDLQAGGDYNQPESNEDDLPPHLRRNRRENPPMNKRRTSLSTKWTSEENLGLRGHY

[7] = target: T5, RNA-binding protein pos-1 (Caenorhabditis elegans, UniProt G5EF15); assay: disruptors of C. elegans POS-1 RNA interaction – biochemical, fluorescence polarization, dose response (AID 1964);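 further: purified POS-1 fused to maltose binding protein made in E. coli; potency of compounds blocking POS-1 binding to fluorescent RNA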
T5 sequence (G5EF15 whole entry): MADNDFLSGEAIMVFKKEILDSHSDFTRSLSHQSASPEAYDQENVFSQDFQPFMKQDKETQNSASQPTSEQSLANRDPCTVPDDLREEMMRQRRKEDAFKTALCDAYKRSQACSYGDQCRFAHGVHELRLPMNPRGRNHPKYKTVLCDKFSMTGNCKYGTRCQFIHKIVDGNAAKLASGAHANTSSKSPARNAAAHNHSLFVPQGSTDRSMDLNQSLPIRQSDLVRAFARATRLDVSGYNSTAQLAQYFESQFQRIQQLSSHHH

H4 = assay: Luminescence Cell-Based Dose Response HTS to Identify Activators of 5'UTR Stem-Loop Driven Prion Protein mRNA Translation in H4 Neuroglioblastoma Cells. [Related pubchem assays: 1829 (Project Summary), 1814 (Primary HTS)]; format: functional; conditions: Homo sapiens
[8] = Luminescence Cell-Based Dose Response HTS to Identify Activators of Luciferase Translation or Activity in H4 […] Cells. [Related pubchem assays: 1829 (Project Summary), 1814 (Primary HTS)]; format: functional
[9] = NIH-3T3 fibroblast cytotoxicity, dose response, cytotoxicity control, cell-based, fluorescence, Alamar Blue, secondary assay (AID 2327); format: functional;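 further: NIH-3T3 mouse fibroblasts cultured with fluconazole at 8 µg/mL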
[10] = Trypanosoma cruzi growth suppression in host cells – NIH3T3 host cells, beta-gal luminescence, confirmation (AID 2044); format: functional, cell-based;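 further: intracellular parasites grown in NIH/3T3 mouse fibroblasts as host cells; luminescent beta-galactosidase reporter signal from transgenic T. cruzi replicating inside host cells; inhibitors lower the luminescence signal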
[11] = NIH3T3 cell viability loss – ATP luminescence, mouse fibroblasts, counter-screen, dose response (AID 2010); format: functional, cell-based;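 further: cells exposed to compound for about 90 hours before reading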

O=C(Nc1csc(Cl)c1)c1ccccc1
IC50 (Protein skinhead-1): > 100 µM (inactive)

CC(C)C(CCNCc1ccccn1)c1ccc(Cl)cc1 (stereo not given)
IC50 (Protein skinhead-1): > 100 µM (inactive)

COc1cccc(C(=O)OCC(=O)Nc2nnc(-c3ccccc3)o2)c1
EC50 (Streptokinase A): > 150 µM (not active) | EC50 [1]: 7.55 µM (active) | IC50 (cells): 14.8 µM (active) | EC50 (Streptococcus): 60.9 µM (active)

CN1/C(=C/C=N/NC(=O)c2ccc([N+](=O)[O-])cc2)C(C)(C)c2ccccc21
EC50 [2]: 23.2 µM (active) | EC50 [3]: 24.3 µM (active)

Nc1ccc(C(=O)N/N=C/c2ccc(N3CCOCC3)s2)cc1
IC50 [4]: 16.5 µM (active)

COc1ccc(NC2CCCN(C(=O)CCC3=NNC(=O)CC3)C2)cc1 (stereo not given)
IC50 [4]: 126 µM (active)

Cc1ccc(OCc2ccc(C(=O)Nc3nccs3)o2)cc1C
IC50 (Protein skinhead-1): > 100 µM (inactive) | AC50 (Cytochrome P450 2D6): 15.8 µM (inconclusive)

O=[N+]([O-])c1ccc(COc2ccc(CN3CCCC3)cc2)cc1
IC50 (Protein skinhead-1): 3.75 µM (active)

CCn1c(CC(=O)Nc2ccc(C)c(Cl)c2)nnc1SCC(=O)Nc1nc(C)cs1
EC50 [2]: 27.2 µM (active) | EC50 [3]: 25.4 µM (active)

COc1cc(SC)ccc1C(=O)Nc1nccs1
IC50 (Protein skinhead-1): 53.6 µM (inactive)

COc1ccc(-c2csc(NC(=S)NC(=O)/C=C/c3ccco3)n2)cc1OC
EC50 [2]: 3.11 µM (active) | AC50 [5]: 0.853 µM (active) | EC50 [3]: 1.62 µM (active)

CN(C)C(CNC(=O)CCc1nc2cc(Cl)ccc2n(Cc2ccccc2)c1=O)c1ccccc1 (stereo not given)
IC50 (Protein skinhead-1): 58.1 µM (inactive)

COc1ccccc1N1CCN(CCCOc2ccc(F)cc2)CC1
IC50 [4]: 122 µM (active)

CCc1nc2c(OCc3ccc(C(F)(F)F)cc3)cccn2c1N(C)C(=O)c1ccncc1
IC50 (Protein skinhead-1): 4.62 µM (active)

Cc1ccc2[nH]c(C)c(/C=C3/C(=N)N4N=C(CC(=O)N5CCOCC5)SC4=NC3=O)c2c1
IC50 (Protein skinhead-1): > 100 µM (inactive) | EC50 [6]: > 300 µM (inconclusive) | EC50 [7]: 38.3 µM (active)

Cc1ccc(-n2c(=S)[nH]c3sc4c(c3c2=O)CCC4)cc1
IC50 [4]: 85.6 µM (active)

CC(C)c1ccc(C(=O)Nc2ccc(CN3CCOCC3)cc2)cc1
IC50 (Protein skinhead-1): 3.18 µM (active)

Nc1ccccc1Nc1ccccc1
IC50 (cells): 1.28 µM (active) | IC50 [4]: 36.1 µM (active)

CCCCn1c(S)nc2c(=O)n(C)c(=O)n(C)c21
IC50 [4]: 20.9 µM (active)

COc1c(C(=O)Nc2nccs2)ccc2ccccc12
IC50 (Protein skinhead-1): 17.1 µM (active)

c1ccc(CSc2nnc(-c3c[nH]c4ccccc34)o2)cc1
EC50 (H4): 70.2 µM (active) | EC50 [8]: 28.7 µM (active)

COc1cc(/C=N/NC(=O)C(=O)Nc2ccccn2)ccc1O
IC50 [4]: 22.6 µM (active)

O=C(COc1ccccc1F)N/N=C1\CCCc2ccccc21
EC50 (H4): 53.3 µM (inconclusive) | EC50 [8]: 24.8 µM (active)

O=C(NCc1cccnc1)NC1(C(F)(F)F)Oc2ccccc2O1
EC50 [2]: 23.3 µM (active) | EC50 [3]: 25.1 µM (active)

O=C1CCC(C(=O)OCC(=O)N2N=C3/C(=C\c4ccccc4)CCCC3C2c2ccccc2)N1 (stereo not given)
IC50 (Protein skinhead-1): > 100 µM (inactive)

CCOc1cc(N2CCOCC2)c(OCC)cc1NC(=O)Cc1ccccc1OC
EC50 [2]: 21.2 µM (active) | EC50 [3]: 23.9 µM (active)

CCCSc1nc(O)c2cnn(-c3ccc(C)cc3)c2n1
EC50 [2]: 20.7 µM (active) | EC50 [3]: 22.2 µM (active)

O=C(Nc1cc2c3c(c1)C1CCCC1CN3CC1CCCC21)c1ccccc1 (stereo not given)
EC50 [9]: > 160 µM (inactive) | EC50 [10]: 0.78 µM (active) | EC50 [11]: > 60 µM (not active)

CCN(CC)c1ccc(S(=O)(=O)N2CCOCC2)cc1NC(=O)COC(=O)/C=C/c1ccc(O)c(OC)c1
IC50 [4]: 108 µM (active)

Cc1noc(C)c1S(=O)(=O)N1CCCC(C(=O)NCCc2ccc(Cl)cc2)C1 (stereo not given)
IC50 (Protein skinhead-1): > 100 µM (inactive)

COc1ccc(-c2cc3ccccc3n2CC(O)CN2CCCCC2)cc1 (stereo not given)
IC50 [4]: 110 µM (active)

Cc1ccc(C)c(NS(=O)(=O)c2ccc3c(c2)Cc2cc(S(=O)(=O)Nc4cc(C)ccc4C)ccc2-3)c1
EC50 [2]: 11.2 µM (active) | EC50 [3]: 9.63 µM (active)

CC1=NNC(=O)C1Br (stereo not given)
IC50 [4]: 55.9 µM (active)

Clc1ccc(-c2cn3cc(Br)ccc3n2)cc1Cl
IC50 (Protein skinhead-1): > 100 µM (inactive)

Cn1cc(C(=O)NCCN2CCN(c3cccc(Cl)c3)CC2)c2c3ccccc3n(C)c2c1=O
EC50 [2]: 63 µM (active) | EC50 [3]: 46.8 µM (active)
